Data set [1] has as its target T1, GST tagged Bcl w delta C29 protein (Homo sapiens, UniProt Q92843).
T1 sequence (Q92843 1-164 limits assumed): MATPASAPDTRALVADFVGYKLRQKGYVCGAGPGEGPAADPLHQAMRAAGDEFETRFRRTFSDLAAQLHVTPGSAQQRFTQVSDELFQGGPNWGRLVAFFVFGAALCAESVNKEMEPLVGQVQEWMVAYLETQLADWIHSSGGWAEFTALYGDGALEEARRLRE
The data set can be described thus: Alphascreen competition with Bim26mer, GST detection system. The data set is classed as binding. The note with it: competition with biotinylated Bim-BH3 peptide; 12-mers, Example 7; read-out: IC50 (nM) Bcl-w ΔC29. (In general: Bead proximity is the source of the signal in Alpha formats.)

Data set [2] in a line: Circular dichroism, alpha-helical content of peptides. The data set is classed as physicochemical. To be noted: 30% aqueous trifluoroethanol. As for the experimental part:
Circular dichroism spectra were obtained using a Jasco Model J-710 spetropolarimeter at 20° C. using the following parameters: path length, 2 mm; step resolution, 0.1 nm; speed, 20 nm/min; accumulation, 4; response, 1 second; bandwidth, 1.0 nm. The peptides were analysed at a concentration of 0.5 mg/mL in 30% aqueous TFE. The alpha-helical content of the peptides were determined by methods described in Yang et al (1986), involving comparisons of spectra with model helical peptides.
In general terms: Circular dichroism is widely used to follow secondary structure.

Data set [3] deals with Bcl-2 ΔC22 (Homo sapiens, UniProt P10415). Kind of data set: Competition assay using biotinylated Bim-BH3 peptide, Bcl-2 ΔC22. The data set is classed as binding. The note with it: for IC50: competition with biotinylated Bim-BH3 peptide. The text has this:
The results are shown below:

In data set [4] the target is T2, 6-His tagged Bcl w delta C10 protein (Homo sapiens, UniProt Q92843).
T2 sequence (Q92843 1-183 limits assumed): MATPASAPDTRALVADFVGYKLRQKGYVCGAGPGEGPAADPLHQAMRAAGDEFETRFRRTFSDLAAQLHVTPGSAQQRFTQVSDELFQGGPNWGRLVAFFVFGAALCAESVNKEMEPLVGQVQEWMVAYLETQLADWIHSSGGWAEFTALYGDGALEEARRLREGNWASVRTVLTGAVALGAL
The data set can be described thus: Alphascreen competition with Bim26mer, Hexa-His detection system. The data set is classed as binding. To be noted: competition with biotinylated Bim-BH3 peptide; read-out: IC50 (nM) Bcl-w ΔC10. The text has this: Alphascreen (Amplified Luminsecent Proximity Homogenous Assay) is a bead based technology which measures a biological interaction between molecules. The assay consists of two hydrogel coated beads which, when bought into close proximity by a binding interaction, allow a transfer of singlet oxygen from a donor bead to an acceptor bead.
Upon binding a photosensitiser in the donor bead converts ambient oxygen to a more excited singlet state. This singlet oxygen then diffuses across to react with a chemiluminescer in the acceptor bead. Fluorophores within the same bead are activated, resulting in the emission of light.
Screening of the conformationally constrained peptides was performed using the Hexa-His detection system. Non biotinylated peptides dissolved in DMSO were titrated into the assay which consisted of 6-His tagged Bcl w delta C10 protein (24 nM Final concentration) and Biotinylated Bim BH3-26 peptide, Biotin-[…] [SEQ ID NO: 40] (1.5 nM Final concentration). To this reaction mix 6His tagged (Nickel Chelate) acceptor beads and Streptavidin coated donor beads, both at 10 ug/ml Final concentration, were added.
Assay buffer contained 50 mM Hepes pH 7.4, 10 mM DTT, 100 mM NaCl, 0.05% Tween and 1 mg/ml BSA. Bead dilution buffer contained 50 mM Tris, pH 7.5, 0.01% Tween and 1 mg/ml BSA. The final DMSO concentration in the assay was 1%. Assays were performed in 384 well white Optiplates and analysed on the Perkin Elmer Fusion plate reader (Ex680, Em520-620 […]).

For data set [5], the target named is GST tagged Bcl w delta C29 protein (UniProt Q92843). Kind of data set: AlphaScreen competition, GST detection; competitor biotinylated Bim BH3-26 peptide.

*1 amine or outer side, *2 acyl side, *3 side chain or, on linkers, in order; H or OH if unused. Where a SMILES comes first, the peptide text is derived from it. Bridges are numbered along the chain shown (N, C = ends). NH(CH2)5NH = C(CCN[*:1])CCN[*:2]

By IC50 is commonly meant the midpoint of a concentration-inhibition curve.

Turning to `CC[C@H](C)[C@H](NC(C)=O)C(=O)N[C@@H](C)C(=O)N[C@@H](CCC(N)=O)C(=O)N[C@H]1CCC(=O)NCCCCCNC(=O)CC[C@@H](C(=O)N[C@@H](Cc2ccccc2)C(N)=O)NC(=O)[C@H](CC(=O)O)NC(=O)CNC(=O)[C@H]([C@@H](C)CC)NC(=O)[C@H](CCCNC(=N)N)NC(=O)[C@H](CCCNC(=N)N)NC(=O)[C@H](CC(C)C)NC1=O` [Peptide B, Acetyl-IAQ(E1)LRRIGD(E2)F-amide] (Ac-IAQELRRIGDEF-NH2; linker 4-11 via NH(CH2)5NH), the IC50 in data set [1] turned out to be 150 nM; in data set [3] it was 290 nM; in data set [4], 65 nM. In addition, the “% Helicity” value in data set [2] is recorded as 28%. Further, the “affinity for Bcl-2 and Bcl-xL over the unconstrained 12-mer, in words” value in data set [3] (compared to the unconstrained 12-mer) was “outstanding increases in affinity”.

Regarding “Ac-IAQELRRIGDEF-NH2 [Linear 12mer, reference compound]”, the values for the IC50 in data set [1], in data set [3] and in data set [4] were 4700 nM, 240000 nM and 870 nM, respectively. Further, the “% Helicity” value in data set [2] was 9%.

In turn, Ac-IWIAQELRRIGDEFNA-NH2 (linker 6-13 via ‑NHCH2C(═O)(CH2)2NH2‑) returned an IC50 in data set [5] of 0.3 nM.

For the origin of these results see patent US20070032417A1, “Peptides and therapeutic uses thereof” (priority 2002, published 2007).
